Test results published in US20210046109A1, “Suppressive Exosomes in Cancer and for Immunosuppression” (The Regents of the University of California, priority 2018, published 2021).
Peptide text beside a SMILES is read from it. * marks the point of attachment. Cbz = O=C(OCc1ccccc1)*

Key:
PC3 and SK-MEL-28 cells = assay: Lysosome / proteasome inhibition, western analysis of PD-L1 protein levels; format: cell-based; conditions: for PD-L1 protein levels: both lines
Method: Next, potential differences in protein degradation were evaluated. The two main pathways for protein degradation are the lysosome and the proteasome. The small molecule Bafalomycin A1 (BafA1) inhibits lysosomal activity by blocking the V-ATPase hydrogen pump and thus acidification of the lysosome. An increase in the protein LC3B, a known target of the lysosome, confirmed effectiveness of the small molecule on PC3 and SK-MEL-28 cells. However, levels of PD-L1 in both lines were unaltered, implying little turnover of PD-L1 by the lysosome in these cells. The small molecule MG132 suppresses proteasome activity by blocking the 26s proteasome complex and consequentially proteolysis. The proteasome recognizes ubiquitin side chains on its targets. An increase in the presence of ubiquitinated proteins confirmed the effectiveness of MG132 on the two cells lines.

cancer cells = assay: IFNγ treatment of cancer cells, PD-L1 in cellular and 100 k g fractions and vesicle number; format: cell-based
Excerpt: In vivo, tumor cells can mediate adaptive resistance by up-regulating PD-L1 in response to interferon-gamma (IFNγ) released by the cytotoxic T lymphocytes within the tumor bed. Therefore, it was explored whether, in addition to up-regulating cellular PD-L1, IFNγ may increase the secretion of PD-L1. Treatment of cancer cells with IFNγ led to an increase in PD-L1 in both the cellular and 100 k g fractions. […] Thus, similar to the cell surface membrane PD-L1, extracellular vesicular PD-L1 increased in response to IFNγ.

Row | Compound | presence of ubiquitinated proteins (PC3 and SK-MEL-28 cells; PC3 and SK-MEL-28 cells) | PD-L1 protein levels (PC3 and SK-MEL-28 cells; PC3 and SK-MEL-28 cells) | PD-L1 levels (PC3 and SK-MEL-28 cells; SK-MEL-28 cells only, not PC3) | protein LC3B, known target of the lysosome (PC3 and SK-MEL-28 cells; PC3 and SK-MEL-28 cells) | PD-L1 in both the cellular and 100 k g fractions (cancer cells) | number of vesicles secreted (cancer cells)
1 | CC(C)C[C@@H](C=O)NC(=O)[C@H](CC(C)C)NC(=O)[C@H](CC(C)C)NC(=O)OCc1ccccc1 [MG132] (Cbz-Leu-Leu-Leu-aldehyde) | increase | minimally affected | slightly up |  |  | 
2 | CO/C1=C\C(C)=C\[C@@H](C)[C@@H](O)[C@@H](C)C/C(C)=C/C=C/[C@H](OC)[C@@H]([C@@H](C)[C@@H](O)[C@H](C)[C@@]2(O)C[C@@H](O)[C@H](C)[C@@H](C(C)C)O2)OC1=O [BafA1, Bafalomycin A1] |  | unaltered |  | increase |  | 
3 | interferon-gamma [IFNγ, interferon-gamma released by cytotoxic T lymphocytes] |  |  |  |  | increase | did not increase
